Test results as given in patent US20240252652A1, “PROTEINS HAVING UNNATURAL AMINO ACIDS AND METHODS OF USE” (The Regents of the University of California, priority 2021, published 2024).

Key:
[1] = target: T1, Siglec-7v with azido-GD3 (Homo sapiens, UniProt Q9Y286, C41S); assay: Small molecule mediated Siglec-7v cross-linking in vitro (Western blot); type: biochemical; settings: for cross-linking of Siglec-7v with azido-GD3 (biotin band slightly above Siglec-7v): 60 μM Siglec-7v, 2 mM azido-GD3, 0.3 mM cross-linker, room temperature, UV for NHQM, HoQM
T1 construct: made in house; host or cells: E. coli BL21(DE3)
T1 sequence (Q9Y286 with tags, fused parts or gaps C41S): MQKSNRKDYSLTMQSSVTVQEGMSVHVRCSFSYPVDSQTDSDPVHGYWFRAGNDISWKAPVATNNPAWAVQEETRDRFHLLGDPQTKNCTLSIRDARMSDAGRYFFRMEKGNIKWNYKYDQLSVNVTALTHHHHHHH
Description: We then investigated if the various function groups synthesized onto the cross-linkers (FIG. 1B) could achieve protein-glycan cross-linking using Siglec-7v and azido-GD3 as the model system. Siglec-7v (60 μM) was incubated with 2 mM azido-GD3 for 1 h at room temperature, followed by the addition of different cross-linkers to the solution. For samples treated with cross-linker NHQM or HoQM, UV light was applied to activate the cross-linker. Alkyne-biotin was subsequently clicked with azido-GD3 in the samples, and the biotin signal was detected with Western blot using streptavidin-HRP (FIG. 1E). […] (Ref. 20). The results here indicate that NHSF can be applied to cross-link protein-glycan interactions via the sulfonyl fluoride group.
To test if small molecule cross-linker could cross-link Siglec-7v with azido-GD3 and azido-lac, 60 μM Siglec-7v was incubated with 2 mM azido-GD3 or azido-lac in PBS buffer, pH 7.4 at room temperature for 1 hr. The solution was treated with or without 0.3 mM NHSF or NHBr or NHFS or NHQM or HoQM at room temperature for 1 hr, respectively. The NHQM or HoQM was then illuminated with or without UV for 15 mins at wavelength 365 nm. After that, 200 μM alkyne-biotin, 0.05 mM CuSO4, 1 mM THPTA and 1 mM sodium ascorbate were added and the reaction mixture was incubated at room temperature in dark environment for 0.5 hours. Samples were then boiled at 95° C. for 5 mins and run Western blot against 6× His tag antibody or streptavidin-horseradish peroxidase (HRP).

[2] = Cross-linking of azido-GD3 by SFY incorporated Siglec-7v in vitro (Western blot); type: biochemical; settings: 60 μM Siglec-7v(127SFY), 2 mM azido-GD3
Description: FIGS. 17A-17D provide a comparative study between NHSF pretreated Siglec-7v (Siglec-7v-SF) and Siglec-7v(127SFY). […] Siglec-7v(127SFY) or Siglec-7v-SF was incubated with azido-GD3 or azido-lac followed with Western blot detection. The azido group was click reacted with alkyne-biotin for Western blot detection of GD3/lac. […] Cells were treated with protein, washed, stained with a fluorescently labeled antibody specific for the His×6 tag appended at the C-terminus of Siglec-7v, and quantified with flow cytometry. […] Pre-stained BT-20 cells were incubated with 12 μM Siglec-7v-SF or Siglec-7v(127SFY) for 2 h. Cells were then washed and incubated with NK-92 cells for 4 h. Cells were stained with propidium iodide and NK cytotoxicity was evaluated by flow cytometry. Control group: no protein treatment. The line and error bar represent mean±SEM; n=3 independent batches of Siglec-7v proteins. *** p<0.001; NS, not significant, multiple t test.
We then determined if SFY could enable Siglec-7v to cross-link the bound glycan ligand. Inspired by NHSF-mediated cross-linking of azido-GD3 through Lys on Siglec-7v protein, we incorporated SFY into individual Lys sites of Siglec-7v, including sites 20, 24, 75, 104, 127, 131, and 135. […] Cross-linking of azido-GD3 was detected for Siglec-7v(104SFY) and Siglec-7v(127SFY). […]

Compound: O=C(CCCCCCCNC(=O)c1ccc(S(=O)(=O)F)cc1)ON1C(=O)CC(S(=O)(=O)[O-])C1=O.[Na+] (stereo not shown) [NHSF—C7, sodium 1-((8-(4-(fluorosulfonyl)benzamido)octanoyl)oxy)-2,5-dioxopyrrolidine-3-sulfonate]
- cross-linking efficiency on further increase of the linker length ([1]; Siglec-7v with azido-GD3): lowered

Compound: CC(=O)N[C@H]1[C@H]([C@H](O)[C@H](O)CO)O[C@@](O[C@H]2[C@@H](O)[C@@H](CO)O[C@@H](O[C@H]3[C@H](O)[C@@H](O)C(O)O[C@@H]3CO)[C@@H]2O)(C(=O)O)C[C@@H]1O (stereo partly shown) [3′-sialyllactose]
- effect of added ligand on crosslinking of siglec-7v(127SFY) with azido-GD3 [2]: did not reduce

Compound: O=C(c1ccc(OCc2ccccc2[N+](=O)[O-])c(C(F)F)c1)N1CCN(C(=O)c2ccc(OCc3ccccc3[N+](=O)[O-])c(C(F)F)c2)CC1 [HoQM]
- cross-linking of Siglec-7v with azido-GD3 (biotin band slightly above Siglec-7v) [1]: not

Compound: O=C(ON1C(=O)CCC1=O)c1ccc(OCc2ccccc2[N+](=O)[O-])c(C(F)F)c1 [NHQM]
- cross-linking of Siglec-7v with azido-GD3 (biotin band slightly above Siglec-7v) [1]: not

Compound: O=C(CCCNC(=O)c1ccc(S(=O)(=O)F)cc1)ON1C(=O)CC(S(=O)(=O)[O-])C1=O.[Na+] (stereo not shown) [NHSF—C3, Sodium 1-((4-(4-(fluorosulfonyl)benzamido)butanoyl)oxy)-2,5-dioxopyrrolidine-3-sulfonate]
- cross-linking efficiency on further increase of the linker length ([1]; Siglec-7v with azido-GD3): lowered

Compound: O=C(Cc1ccc(OS(=O)(=O)F)cc1)ON1C(=O)CCC1=O [NHFS, 2,5-dioxopyrrolidin-1-yl 2-(4-((fluorosulfonyl)oxy)-phenyl)acetate]
- cross-linking of Siglec-7v with azido-GD3 (biotin band slightly above Siglec-7v) [1]: not

Compound: O=C(CCNC(=O)c1ccc(S(=O)(=O)F)cc1)ON1C(=O)CC(S(=O)(=O)[O-])C1=O.[Na+] (stereo not shown) [NHSF—C2, Sodium 1-((3-(4-(fluorosulfonyl)benzamido)propanoyl)oxy)-2,5-dioxopyrrolidine-3-sulfonate]
- cross-linking band intensity in comparison with NHSF ([1]; Siglec-7v with azido-GD3): 1.5 fold
